# Assays:
# [1] = test system: patients with relapsing multiple sclerosis (MS); assay: 6-month, placebo-controlled trial of oral FTY720 in 281 patients with relapsing MS; type: in vivo, human; conditions: oral 1.25 or 5.0 mg once-daily, 6 months
# [2] = test system: patients with relapsing multiple sclerosis (MS); assay: Hamburg Quality of Life Questionnaire in MS (HAQUAMS) scores, core 6-month study and extension; type: in vivo, human
# Protocol: Hamburg Quality of Life Questionnaire in MS (HAQUAMS) scores were recorded at baseline, month 3 (M3), and M6 during a core 6-month study, and M12 and M24 during an extension of the core study. The HAQUAMS consists of 38 items, 28 of which contribute to five sub-domains. Domain scores range from 1 to 5, with lower scores indicating improved HRQL. A total score was generated by averaging the five sub-domain scores.
# [3] = test system: lymphocyte counts / tolerability in adolescents; assay: open-label, single-dose 28-day pharmacokinetic and safety/tolerability study in pediatric patients; type: in vivo, human
# Protocol: An open-label, single-dose 28-day pharmacokinetic and safety/tolerability study of FTY720 in pediatric is performed (8 patients aged 11-17 years, 5 patients aged 8-10 years and 5 patients aged 1-5 years). The contents of 0.5 mg capsules is dispersed in water and administered as an oral solution at a dose of 0.07 mg/kg to a maximum dose of 5 mg. The dose is administered by study personnel either directly from the glass mixing vial or with an oral syringe followed by drinking 2 water-rinse cycles of the vial or syringe and an additional 50-200 mL of water.
# Blood samples are collected for 28 days postdose and analyzed for fingolimod and fingolimod-phosphate blood concentrations by validated liquid chromatography methods with tandem mass spectrometry. Standard noncompartmental pharmacokinetic parameters are derived. Absolute lymphocyte counts are measured over 28 days to characterize the effect of FTY720 on lymphocyte decrease and recovery. Heart rate is recorded frequently for 24 hours postdose.
# Safety and tolerability assessments includes information on adverse events, body height and weight, supine systolic and diastolic blood pressure and radial pulse rate; standard 12-lead electrocardiograms (ECGs) interpreted at eResearchTechnology, Inc (Philadelphia, Pa., USA); standard hematology, biochemistry, and urinalysis parameters; screens for Hepatitis B surface antigen (HBsAg), Hepatitis C antibodies, and HIV; and pregnancy tests.
# [4] = test system: patients with moderate asthma; assay: randomized, double-blind, placebo-controlled ascending multiple oral dose study in patients with moderate asthma; type: in vivo, human; conditions: 0.5, 1.25 or 2.5 mg, 10 days
# Protocol: A randomized, double-blind, placebo-controlled, parallel, time-lagged, ascending, multiple oral dose study, is performed in patients with moderate asthma: 36 patients in 3 cohorts (12 patients per cohort). In each cohort, patients are randomized between the FTY720 group (9 patients) and placebo (3 patients)
# Cohort 1: FTY720 0.5 mg or placebo
# Cohort 2: FTY720 1.25 mg or placebo
# Cohort 3: FTY720 2.5 mg or placebo
# Duration of treatment: 10 days.
# Patients continue to take their standard daily dose of long-acting β2 agonist and inhaled corticosteroid throughout the study uninterrupted.
# Pulmonary function test (FEV1, FEF25-75): is performed at 12-hour profile on Day 1 (pre-dose, 1, 2, 3, 4, 5, 6, and 12 hr post dose), 6-hour profile at baseline (Day −1) and on Day 10. An additional PFT is done 6 hours post dose on Days 2, 3, and 7.
# [5] = test system: patients with relapsing multiple sclerosis (MS); assay: long-term extension of the study (up to 36 months, FTY720 once-daily)
# From the text: All patients who subsequently opted to enter a long-term extension of the study received FTY720 once-daily for up to 38 months.
# [6] = after 36 months of continuous treatment
smiles,measurement,setting,value
"CCCCCCCCc1ccc(CCC(N)(CO)CO)cc1 [FTY720, 2-amino-2-[2-(4-octylphenyl)ethyl]propane-1,3-diol]",reduction of annualized relapse rate (ARR) versus placebo,[1],> 50%
same,reduction of cumulative number of gadolinium-enhancing (Gd+) lesions versus placebo,[1],up to 80%
same,HAQUAMS mean total score,"[2]; M6, oral 1.25 mg",1.9
same,"HAQUAMS total score, mean change from baseline","[2]; M6, oral 1.25 mg",−0.02
same,HAQUAMS mean total score,"[2]; M6, oral 5 mg",1.9
same,"HAQUAMS total score, mean change from baseline","[2]; M6, oral 5 mg",−0.01
same,"HAQUAMS fatigue/thinking domain, change","[2]; baseline to M6, oral 1.25 mg (placebo +0.14; p=0.030)",−0.05
same,total HAQUAMS scores,[2]; through M24,Stable
same,lymphocyte count nadir,"[3]; adolescents, single dose",0.37±0.17 ×10^9/L
same,time of lymphocyte nadir (median),"[3]; adolescents, single dose",2 days postdose
same,decrease of mean lymphocyte counts from predose,"[3]; adolescents, single dose, predose count 2.64±1.04×10^9/L",85%
same,lymphocyte count recovery,[3]; by end-of-study visit on day 28,back to baseline
same,tolerability,"[3]; single dose 0.07 mg/kg oral solution, adolescents",well tolerated
same,tolerability of treatment initiation,[4],well tolerated
same,safety profile,[5]; 1.25 mg dose,good safety profile
same,clinical and MRI activity,"[5]; after 3 years of follow-up, continuous oral 1.25 mg or 5.0 mg dose",persistent inhibition of clinical and MRI activity
same,ARR,[5]; [6],0.20-0.21
same,patients remained relapse-free,[5]; [6],68-73%
same,patients free from 6-month sustained disability progression,[5]; month 36,76-80%
same,patients free from Gd+ lesions,"[5]; month 36, each group",88-89%
same,patients free from new T2 lesions,"[5]; month 36, each group",70-78%
same,discontinuation rate,[5]; months 12-24 of extension,17.2%
same,diarrhea reported,[5]; months 24-36,2.7%
same,dyspnea reported,[5]; months 24-36,1.1%
same,nausea reported,[5]; months 24-36,2.1%
same,discontinuation rate,[5]; months 24-36 of extension,6.0%
